Test results published in PubChem BioAssay (NCI).
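A five-concentration, 48-hour dose response in 96-well plates underlies each endpoint, interpolated linearly between surrounding concentrations. The concentration for 50% growth inhibition is given as GI50. At the TGI there is no net growth.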 Where a SMILES comes first, the peptide text is derived from it. The star is where a group is joined. Cbz = O=C(OCc1ccccc1)*; CH2Cl = ClC*

Columns and labels:
Assay in all cases: NCI anticancer screen, dose series, 48 h
A549 NSCLC = test system: A549 NSCLC
ACHN renal = test system: ACHN renal
EKVX NSCLC = test system: EKVX NSCLC
HCT-116 colon = test system: HCT-116 colon
MDA-MB-231 breast = test system: MDA-MB-231 breast
NCI-H226 lung = test system: NCI-H226 lung
OVCAR-5 ovarian = test system: OVCAR-5 ovarian
PC-3 prostate = test system: PC-3 prostate
SK-MEL-5 melanoma = test system: SK-MEL-5 melanoma
T-47D breast = test system: T-47D breast

SMILES	GI50 (A549 NSCLC) [µM]	GI50 (ACHN renal) [µM]	TGI (ACHN renal) [µM]	GI50 (EKVX NSCLC) [µM]	TGI (EKVX NSCLC) [µM]	GI50 (HCT-116 colon) [µM]	TGI (HCT-116 colon) [µM]	GI50 (MDA-MB-231 breast) [µM]	TGI (MDA-MB-231 breast) [µM]	GI50 (NCI-H226 lung) [µM]	TGI (NCI-H226 lung) [µM]	GI50 (OVCAR-5 ovarian) [µM]	TGI (OVCAR-5 ovarian) [µM]	GI50 (PC-3 prostate) [µM]	TGI (PC-3 prostate) [µM]	GI50 (SK-MEL-5 melanoma) [µM]	TGI (SK-MEL-5 melanoma) [µM]	GI50 (T-47D breast) [µM]	TGI (T-47D breast) [µM]	TGI (A549 NSCLC) [µM]
O=C1C=CC(=O)c2cc3cc(CBr)ccc3cc21	9.07	1.82	3.71	24.1	55.7	0.606	1.89	1.95	8.09	27.4	71.2	9.96	33.6	3.85	8.9	14.9	36	2.12	> 26.2	–
CCOC(=O)Nc1ccc(-c2nc(-c3cccc(OCCN4CCOCC4)c3)c(-c3ccnc(Br)c3)[nH]2)cc1	3.47	3.06	> 100	3.2	> 100	2.98	> 100	3.79	> 100	3.18	> 100	5.11	> 100	2.87	> 100	1.74	3.15	2.74	> 100	> 100
Nc1nc(/C=C\c2ccc([N+](=O)[O-])s2)nc(N2CCCC2)n1	2.97	0.743	10.9	10.8	30	1.1	4.68	1.56	9.35	3.32	21.7	15.7	30.7	3.92	21.9	9.66	22.5	1.68	14.1	22.9
CO/N=C(\COc1ccc2c(c1)oc(=O)c1cc(OC)ccc12)c1ccc(OC)cc1	> 100	> 100	> 100	> 100	> 100	> 100	> 100	> 100	> 100	> 100	> 100	> 100	> 100	> 100	> 100	> 100	> 100	> 100	> 100	> 100
Clc1ccc2[nH]cc(-c3nnnn3-c3ccccc3)c2c1	20.8	24.9	> 100	28.3	> 100	18.3	57.5	33.8	> 100	74	> 100	21.8	> 89.8	18.6	> 59.5	9.97	28.8	> 45.3	> 100	> 100
[Cl][Hg][c]1cc[c]([Hg][Cl])o1	21.9	1.85	3.39	2.78	28.1	6.4	20.7	1.9	5.09	21.8	51.8	7.17	23.9	6.83	28.5	2.43	9.6	1.18	3.66	53.5
CC(C)Oc1ccc2cc(-c3nn(CC4CCNCC4)c4ncnc(N)c34)ccc2c1	14.5	10.5	22.2	13.6	26.9	6.78	19.8	3.05	9.94	17.4	35.2	11.9	24.1	12	25.8	11.6	23.8	9.81	24.9	28.3
CC(=O)OC12C=CC(=O)N1c1ccccc1C(=O)O2 (configuration not stated)	–	–	> 100	–	> 100	–	> 100	> 100	> 100	–	> 100	–	> 100	> 100	> 100	–	> 100	> 100	> 100	> 100
COc1ccc(/C=C2/N=C(c3ccccc3)N(c3c(C)n(C)n(-c4ccccc4)c3=O)C2=O)cc1OC	> 100	> 100	> 100	> 100	> 100	> 100	> 100	> 100	> 100	> 100	> 100	> 100	> 100	> 100	> 100	51.7	> 100	77.5	> 100	> 100
CCn1c2ccccc2c2cc(NC(=O)Nc3ccc([N+](=O)[O-])cc3C)ccc21	3.01	3.56	14.9	5.35	> 100	3.17	17.4	3.66	24.6	4.4	29.2	22.5	> 100	2.73	10.8	14.3	> 100	2.34	9.54	15.6
O=C(c1ccccc1)c1cc2ccccc2o1	95	> 100	> 100	32.6	> 100	62.7	> 100	91.9	> 100	> 100	> 100	> 100	> 100	85.2	> 100	80	> 100	83.3	> 100	> 100
CC(C)CC(NC(=O)OCc1ccccc1)C(=O)NC(Cc1ccccc1)C(=O)CCl (stereo not drawn) (Cbz-Leu-Phe-CH2Cl; configuration not given here)	–	–	11.3	–	34.5	–	3.31	–	3.3	–	3.98	–	15.3	–	9.41	–	3.5	–	4.89	39.4
C#C[C@]1(O)CCC2C3CCc4cc(O)ccc4C3CC[C@@]21C (some centres not stated)	5.81	9.42	85.1	1.66	> 100	4.68	20	7.58	47.2	10.3	30.8	17.3	> 100	5.48	42.4	2.24	7.6	6.91	24.4	> 100
